Consider 6 molecules from US9226934B2, “Anti-cancer drug” (THE UNIVERSITY OF TOKYO, priority 2008, dated 2016).

The subject of assay [1] is MC 38, mouse colon carcinoma cells. The assay is described as follows: Subcutaneous tumor model of MC38 colon carcinoma cells in C57Bl/6 mice, tumor growth. The class given is in vivo. Conditions: agent alone i.p. on day 10, 13, 16; compared with non-treated group; afterwards growth as in non-treated group. As for the experimental part: (§1) The MC 38, mouse colon carcinoma cells or B16, melanoma cells were subcutaneously injected to the back of 6-week-old C57BI/6 mice (1×10^5 cells/mouse). After the tumor diameter (longer diameter) reached 5 mm (25 to 30 mm^2) (day 10), an anti-cancer agent and/or an anti-MFG-E8 antibody were/was intraperitoneally administered to each mouse on day 10, day 13, and day 16 according to any of the following protocols. The experiments according to each protocol were performed twice. The employed anti-MFG-E8 antibody was a blocking antibody commercially available from MBL. In protocols 1 to 4, MC38 was used, and B16 melanoma was used in protocol 5.
• Gemcitabine (GEM): 4 mg/kg • Gemcitabine (GEM): 1 mg/kg • Anti-MFG-E8 antibody: 1 mg/kg • Gemcitabine (GEM): 4 mg/kg+anti-MFG-E8 antibody: 1 mg/kg • Gemcitabine (GEM): 1 mg/kg+anti-MFG-E8 antibody: 1 mg/kg Protocol 2: • CPT-11: 1 mg/kg • 5-FU: 0.1 M • Anti-MFG-E8 antibody: 1 mg/kg • CPT-11: 1 mg/kg+anti-MFG-E8 antibody: 1 mg/kg • 5-FU: 0.1 M+anti-MFG-E8 antibody: 1 mg/kg Protocol 3: • Epidermal growth factor receptor tyrosine kinase 1 (EGFR-TK1): […] • Anti-vascular endothelial growth factor receptor-2 monoclonal antibody (α-VEGFR-2Ab): 40 mg/kg • Anti-MFG-E8 antibody: 1 mg/kg Protocol 4: • Irradiation (XRT): 3 Gy/day×5 • Anti-MFG-E8 antibody: 1 mg/kg Protocol 5: • Doxorubicin (Dox): 5 mg/kg • Etoposide (Etop): 2 mg/kg • Anti-MFG-E8 antibody: 1 mg/kg (Results)

A further assay has as its system B16, melanoma cells. In words: Subcutaneous tumor model of B16 melanoma cells in C57Bl/6 mice, tumor growth. Format: in vivo, mouse. As to conditions: agent alone i.p. on day 10, 13, 16; compared with non-treated group; afterwards growth as in non-treated group. As for the experimental part: as §1, with “5. […]” for “5.”
For the next assay, the system named is dendritic cells. In words: OVA-specific T cell activity in mixed culture with treated dendritic cells, intracellular IFN-γ and IL-10. The class given is cell-based, mouse. Conditions: dendritic cells treated with MFG-E8 recombinant protein 100 μg/mL or anti-MFG-E8 antibody 20 μg/mL; 72 h; compared to control. An excerpt: The mechanisms of activation of dendritic cells and T cells through employment of the anti-MFG-E8 antibody and the anti-cancer agent, such activation having been observed in vivo, were further investigated in vitro by using a mixed culture system.
Specifically, ovalbumin (OVA) was employed as a model antigen. In a specific procedure, bone marrow cells were collected from DO11.10 (MHC class II-restricting OVA antigen transgenic mice), and differentiation to dendritic cells was induced with granulocyte-monocyte colony-stimulating factor (GM-CSF). Seven days after the initiation of the differentiation induction, the cells were treated with MFG-E8 recombinant protein (100 μg/mL) or anti-MFG-E8 antibody (20 μg/mL). Thereafter, on day 8, the thus-treated cells were pulsed with MHC class II OVA-restricting OVA peptide ([…]) or a negative control peptide (HSA) for six hours. The resultant cells were admixed with naive CD4+ positive T cells derived from syngeneic (Balb/c) mice in such an amount that the ratio of dendritic cells to CD4+ T cells was adjusted to 1:10, and the cell mixture was cultured in the presence of an anti-CD3 antibody (0.1 μg/mL). Seventy-two hours after, the activity of T cells was determined through flow cytometry, in terms of intracellular expression of IFN-γ and IL-10.

The subject of another assay is Dendritic cells (BMDCs). The assay is described as follows: Cytokine concentrations of BMDC culture supernatant, ELISA. Format: cell-based, mouse. As to conditions: recombinant MFG-E8 100 ng/mL or anti-MFG-E8 monoclonal antibody 20 μg/mL overnight. How it is done:
Dendritic cells (BMDCs) were prepared through culturing myeloid progenitor cells for seven days in a GM-CSF containing medium, and treated overnight with recombinant MFG-E8 (100 ng/mL, product of R&D Systems), an anti-MFG-E8 monoclonal antibody (20 μg/mL, MBL), or a polyclonal MFG-E8 anti-serum (20 μg/mL). The IL-12, IL-23, TNF-α, and IL-10 concentrations of the culture supernatant were determined with ELISA. On day 7, BMDCs were co-cultured with PKH26 (Sigma-Aldrich)-labeled EG.7-OVA cells using a 12-well plate (ratio: 1:10), and phagocytosis was determined with flow cytometry. A similar experiment was performed using tumor cells treated for 30 minutes with an anti-MFG-E8 monoclonal antibody ([…]) before the co-culture. The effect of αvβ3 integrin-blocking antibody (RMV-7, product of Millipore) or Fc-receptor-blocking antibody (product of BD Bioscience) was also evaluated on the intake of tumor cells. Cross-presentation was tested using the following procedure. Specifically, naive CD4^+ T cells were isolated from the spleen of C57BL/6-Tg (ACTB-OVA) 916Jen/J mice using magnetic cell sorting (product of Miltenyi Biotech). The thus-isolated cells were added to the dendritic cells to which tumor cells had been loaded for 24 hours. Expression of IFN-γ within the cells was measured with flow cytometry.

On to `O=c1[nH]cc(F)c(=O)[nH]1` [5FU, 5-FU], for which the “tumor growth, anti-cancer agent alone” value in assay [1] is reported as “tumor growth was significantly suppressed for 5 to 10 days after administration”.
Same read-out and setting: next, `CCc1c2c(nc3ccc(OC(=O)N4CCC(N5CCCCC5)CC4)cc13)-c1cc3c(c(=O)n1C2)COC(=O)[C@]3(O)CC` [CPT-11]: “tumor growth was significantly suppressed for 5 to 10 days after administration”; `Nc1ccn([C@@H]2O[C@H](CO)[C@@H](O)C2(F)F)c(=O)n1` [GEM, gemcitabine]: “tumor growth was significantly suppressed for 5 to 10 days after administration”.
On to `COc1cccc2c1C(=O)c1c(O)c3c(c(O)c1C2=O)C[C@@](O)(C(=O)CO)C[C@@H]3O[C@H]1C[C@H](N)[C@H](O)[C@H](C)O1` [doxorubicin], for which the “tumor growth, anti-cancer agent alone” value in the assay with B16, melanoma cells is “tumor growth was significantly suppressed for 5 to 10 days after administration”.
As for `COc1cc([C@@H]2c3cc4c(cc3[C@@H](O[C@@H]3O[C@@H]5CO[C@@H](C)O[C@H]5[C@H](O)[C@H]3O)[C@H]3COC(=O)[C@H]23)OCO4)cc(OC)c1O` [etoposide], the “tumor growth, anti-cancer agent alone” value in the assay on B16, melanoma cells is recorded as “tumor growth was significantly suppressed for 5 to 10 days after administration”.

B1: MFG-E8: MFG-E8 recombinant protein (product of R&D Systems in Example 11) (protein, UniProt Q08431 24-387, looked up)
Lactadherin: LDICSKNPCHNGGLCEEISQEVRGDVFPSYTCTCLKGYAGNHCETKCVEPLGLENGNIANSQIAASSVRVTFLGLQHWVPELARLNRAGMVNAWTPSSNDDNPWIQVNLLRRMWVTGVVTQGASRLASHEYLKAFKVAYSLNGHEFDFIHDVNKKHKEFVGNWNKNAVHVNLFETPVEAQYVRLYPTSCHTACTLRFELLGCELNGCANPLGLKNNSIPDKQITASSSYKTWGLHLFSWNPSYARLDKQGNFNAWVAGSYGNDQWLQVDLGSSKEVTGIITQGARNFGSVQFVASYKVAYSNDSANWTEYQDPRTGSSKIFPGNWDNHSHKKNLFETPILARYVRILPVAWHNRIALRLELLGC
Regarding B1, in the assay with dendritic cells, the IL-10 production result is “potentiation” and the “OVA-specific IFN-γ production” value is listed as “suppression”. The “IL-10 production by dendritic cells” value in the assay with Dendritic cells (BMDCs) was “enhanced secretion of IL-10”.
